The target in one data set is T1, k opioid receptors (Cavia porcellus, UniProt P41144).
T1 construct: Membrane fractions were prepared from Sprague-Dawley rat or guinea pig brains; from tissue; host or cells: guinea pig brain (without cerebella) membranes
Kind of data set: Opioid receptor binding assay, [3H]U69,593, guinea pig brain membranes.

The target of a further data set is T2, δ receptor (Rattus norvegicus, UniProt P33533).
T2 construct: Membrane fractions were prepared from Sprague-Dawley rat or guinea pig brains; from tissue; host or cells: Sprague-Dawley rat brain (without cerebella) membranes
T2 sequence (P33533 whole entry): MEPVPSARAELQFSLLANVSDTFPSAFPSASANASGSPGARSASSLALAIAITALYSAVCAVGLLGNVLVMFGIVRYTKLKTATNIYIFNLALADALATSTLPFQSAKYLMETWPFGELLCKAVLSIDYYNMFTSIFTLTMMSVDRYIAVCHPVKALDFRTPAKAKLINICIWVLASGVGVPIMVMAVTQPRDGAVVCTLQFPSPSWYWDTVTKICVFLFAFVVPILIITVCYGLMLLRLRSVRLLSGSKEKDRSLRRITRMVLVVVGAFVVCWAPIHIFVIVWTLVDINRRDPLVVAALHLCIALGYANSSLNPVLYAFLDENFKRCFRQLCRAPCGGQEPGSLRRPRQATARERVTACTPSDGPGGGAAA
The data set is described as follows: [35S]GTPγS functional assay, rat brain membranes, δ receptor. The data set is classed as biochemical, Sprague-Dawley rat. The method, then:
(§1) Membrane fractions were prepared from Sprague-Dawley rat or guinea pig brains as described above. To determine binding of [^35S]GTPyS, rat or guinea pig brain membranes (10 µg of protein) were incubated for 60 min at 30 °C in Tris-EGTA buffer (50 mM Tris-HCl buffer, 3 mM MgCl2, 1 mM EGTA, […], pH 7.4) containing 30 µM GDP, 0.05 nM [^35S]GTPyS and appropriate concentrations of the respective compounds according to the present invention in a final volume of 1 ml. The reaction was terminated by vacuum filtration through Whatman GF/B glass fibre filters. Filters were washed three times with ice-cold 50 mM Tris-HCI buffer (pH 7.4) and the bound radioactivity was measured by liquid scintillation counting (Beckman Coulter™ LS6500). Basal activity was determined by subtracting the non-specific binding (measured in the presence of 100 µM unlabelled GTPyS) from the total binding (measured in the absence of the compound).
(§2) Stimulation produced by the compound is given as percentage of the basal activity (given as 100%). Functional data, EC50 (nM; half maximal effective concentration) and maximal stimulation Emax (% stimulation over basal level; maximal effective concentration), were calculated by using nonlinear regression analysis and sigmoidal curve fitting GraphPad Prism (San Diego, CA, USA) program. The values are expressed as the mean ± S.E.M of at least 3 independent experiments, each performed in triplicate. Statistical analysis was carried out using SPSS software (SPSS Inc., Chicago, lL, USA) and the Student T-test was used to compare different assay conditions. A ρ value < 0.05 was considered statistically significant.
In general terms: GTPγS resists hydrolysis and so accumulates on activated G proteins.

For a further data set, the target named is T3, K receptor (Cavia porcellus, UniProt P41144).
T3 construct: Membrane fractions were prepared from Sprague-Dawley rat or guinea pig brains; from tissue; host or cells: guinea pig brain (without cerebella) membranes
T3 sequence (P41144 whole entry): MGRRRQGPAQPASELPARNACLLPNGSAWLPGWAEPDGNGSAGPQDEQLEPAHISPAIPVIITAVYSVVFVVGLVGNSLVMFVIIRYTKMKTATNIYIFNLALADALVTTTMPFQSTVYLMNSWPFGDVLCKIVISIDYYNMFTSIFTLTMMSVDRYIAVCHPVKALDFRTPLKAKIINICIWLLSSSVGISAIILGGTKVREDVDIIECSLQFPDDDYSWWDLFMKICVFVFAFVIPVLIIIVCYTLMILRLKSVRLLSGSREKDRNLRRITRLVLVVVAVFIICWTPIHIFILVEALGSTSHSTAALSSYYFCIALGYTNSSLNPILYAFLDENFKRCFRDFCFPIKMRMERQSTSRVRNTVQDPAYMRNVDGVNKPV
It counts as biochemical, guinea pig.

Data set [1] deals with σ receptors labelled by [^3H]DTG (σ1 + σ2). Kind of data set: Sigma receptor binding assay, [3H]DTG. The following applies: read-out: IC50 ± SEM [^3H]DTG (σ1 + σ2); guinea pig brain membranes; compounds 1-5 tested up to 10 µM. The method, then:
Filters were washed three times with 5 ml of ice-cold 10 mM Tris-HCI buffer (pH 8). The bound radioactivity was measured by liquid scintillation counting (Beckman Coulter™ LS6500). […] The values are expressed as the mean ± S.E.M of 2 - 4 independent experiments, each performed in duplicate.

Data set [2] concerns extracellular ACh concentration in the nucleus accumbens. The following applies: for 0AUC120 min (% increase x min) Mean ± SEM: 0 to 120 min; for Increase in ACh release (Peak increase as % of basal output): nucleus accumbens.
Data set [3] concerns the target T4, µ opioid receptor (Rattus norvegicus, UniProt P33535). The data set is described as follows: Opioid receptor binding assay, [3H]DAMGO, rat brain membranes. The arrangement: Membrane fractions were prepared from Sprague-Dawley rat or guinea pig brains; from tissue; host or cells: Sprague-Dawley rat brain (without cerebella) membranes; species or system Sprague-Dawley rat.

Data set [4] concerns the target T4, µ opioid receptor. The data set is described as follows: [35S]GTPγS functional assay, rat brain membranes, µ receptor. It counts as biochemical, Sprague-Dawley rat. The arrangement: Membrane fractions were prepared from Sprague-Dawley rat or guinea pig brains; from tissue; host or cells: Sprague-Dawley rat brain (without cerebella) membranes. The method, then:
as §1, §2

Read-outs that look alike come from different tables or passages of the source.

T1 sequence (P41144 whole entry): as above
T4 sequence (P33535 whole entry): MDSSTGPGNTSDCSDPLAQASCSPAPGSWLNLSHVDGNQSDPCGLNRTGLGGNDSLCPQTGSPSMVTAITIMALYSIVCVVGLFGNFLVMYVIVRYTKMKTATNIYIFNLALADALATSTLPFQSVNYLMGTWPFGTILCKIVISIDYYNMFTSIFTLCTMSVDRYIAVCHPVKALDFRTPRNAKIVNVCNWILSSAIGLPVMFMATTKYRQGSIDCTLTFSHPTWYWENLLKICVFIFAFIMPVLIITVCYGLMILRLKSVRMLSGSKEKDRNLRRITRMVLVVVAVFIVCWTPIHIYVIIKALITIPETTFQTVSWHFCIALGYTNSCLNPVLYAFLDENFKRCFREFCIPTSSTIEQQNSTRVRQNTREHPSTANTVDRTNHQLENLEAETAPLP

What is called Ki is the equilibrium dissociation constant of an inhibitor or competing ligand from its target. A word on the IC50: it is the midpoint of a concentration-inhibition curve. In the case of `C=CCN1CC[C@]23CC(=O)CC[C@H]2[C@H]1Cc1cccc(OC)c13` [Compound 4, 4-methoxy-N-allylmorphinan-6-one], the Ki worked out at 0.0331 µM at k opioid receptors and 0.0202 µM on µ opioid receptor [3]. Moreover, the “[35S]GTPγS binding on co-incubation with naltrindole versus antagonist alone” value on δ receptor (10 µM each) is reported as “did not produce any significant increase”. In addition, the “effect on [35S]GTPγS binding stimulated by SNC 80” value on δ receptor (compound 10 µM, SNC 80 10 µM) is reported as “did not cause any significant changes”. Besides, the “[35S]GTPγS binding in the presence of the compound alone” value on K receptor is on record as “no increase”; on µ opioid receptor [4] (rat brain membranes, compared with DAMGO), “no increase”. The “[35S]GTPγS binding on co-incubation with Nor-BNI versus antagonist alone” value at K receptor is “did not produce any significant increase”. Further, on K receptor, the “effect on [35S]GTPγS binding stimulated by U69,593” value was “slight, but significant decrease”. In addition, the IC50 in data set [1] is greater than 10 µM. For the same molecule, the “effect on ACh in the superfusate (in words)” value was “ineffective” in data set [2] (0.25 µmol i.c.v., n=4, not shown) and “short, delayed increase” in data set [2] (0.5 µmol i.c.v.). The “toxicity at higher doses” value in data set [2] (1 µmol and above, i.c.v., anaesthetized rats) is listed as “could not be tested because of toxicity”. In addition, the “0AUC120 min (% increase x min) Mean ± SEM” value was “inactive” in data set [2] (Dose 0.25 µmol i.c.v.) and 85 ± 26 % increase x min in data set [2] (Dose 0.5 µmol i.c.v.). The “Increase in ACh release (Peak increase as % of basal output)” value in data set [2] (Dose 0.25 µmol i.c.v.) is “inactive”; in data set [2] (Dose 0.5 µmol i.c.v.), 43 ± 19 %. At µ opioid receptor [3], the “binding to opioid receptor µ (in words)” value is “some µ opioid receptor affinity”. On µ opioid receptor [3] (from binding, Table 3), the “selectivity among opioid receptor types” value is recorded as “moderate selectivity for the µ type”. Besides, the “function at the µ opioid receptor” value at µ opioid receptor [4] is recorded as “antagonistic function”. In addition, the “[35S]GTPγS binding on co-incubation with cyprodime versus antagonist alone” value at µ opioid receptor [4] (10 µM each, rat brain membranes) is given as “did not produce any significant increase”. The “effect on [35S]GTPγS binding stimulated by DAMGO” value at µ opioid receptor [4] (compound 10 µM, DAMGO 10 µM, rat brain membranes) is recorded as “significantly decreased”.
Consider `O=CN1CC[C@]23CC(=O)CC[C@H]2[C@H]1Cc1c(O)ccc(O)c13` [Compound 1, 1,4-dihydroxy-N-formylmorphinan-6-one], for which the Ki at k opioid receptors was greater than 10 µM; at k opioid receptors (read-out: Opioid binding affinities Ki κ receptor, [3H]U69,593, guinea pig brain membranes), greater than 10 µM; on µ opioid receptor [3], greater than 10 µM; at µ opioid receptor [3] (read-out: Opioid binding affinities Ki µ receptor, [3H]DAMGO, rat brain membranes), greater than 10 µM. For the same molecule, the “binding to opioid receptor K (in words)” value on k opioid receptors is reported as “does not bind”. Moreover, in data set [1], the IC50 was greater than 10 µM. The “0AUC120 min (% increase x min) Mean ± SEM” value in data set [2] (Dose 0.5 µmol i.c.v.) worked out at 210 ± 31 % increase x min; in data set [2] (Dose 1 µmol i.c.v.), 1017 ± 214 % increase x min. For the same molecule, the “Increase in ACh release (Peak increase as % of basal output)” value is recorded as 65 ± 16 % in data set [2] (Dose 0.5 µmol i.c.v.) and 224 ± 39 % in data set [2] (Dose 1 µmol i.c.v.). The “AUC (area under the curve) of ACh (% of the basal value)” value in data set [2] (dose of 1 µmol i.c.v.) is 1117±214%. The “level of ACh, peak value (% of the basal value)” value in data set [2] (dose of 1 µmol i.c.v.) was determined as 324±39%. Moreover, in data set [2] (i.c.v., across tested doses), the “dose dependence of the increase in extracellular brain ACh” value is “dose-dependent increase”. Also, the “binding to opioid receptor µ (in words)” value on µ opioid receptor [3] was “does not bind”.

For the origin of these results see patent EP2340832A1, “Morphinan-6-one compounds for the treatment or prevention of neurodegenerative diseases” (Universität Innsbruck, priority 2009, dated 2011).
